“And” between values parts separate entries of the source, which are not always exact repeats. Identical values can stand only once.
Test system: TNFα secretion
Assay: TNFα ELISA assay for TNFα suppressing activity in PMA/ionomycin-stimulated human white blood cells (pairwise combination dilution matrix)
Type: cell-based
Protocol: Stock solutions at 16 mg/ml of dipyridamole, and 1.6 mg/ml of fludrocortisone acetate (Sigma-Aldrich, St. Louis, Mo.; catalog numbers D9766 and F6127, respectively) were made in dimethylsulfoxide (DMSO). The dipyridamole master plates were made by adding 25 μl of the concentrated stock solution to columns 3, 9, and 15 (rows C through N) of a polypropylene 384-well storage plate that had been pre-filled with 75 μl of anhydrous DMSO. Using a TomTec Quadra Plus liquid handler, the 25 μl of dipyridamole stock solution was serially diluted four times into the adjacent columns (columns 4-7, 10-13, 16-19). […] The fludrocortisone master plates were made by adding 25 μl of the concentrated stock solution to the appropriate wells (row C, columns 3-8; row C, columns 9-14; row C, columns 15-20; row I, columns 3-8; row I, columns 9-14; row I, columns 15-20) of the appropriate master polypropylene 384-well storage plate. These master plates had been pre-filled with 75 μl of anhydrous DMSO. Using the TomTec Quadra Plus liquid handler, the 25 μl was serially diluted four times in the adjacent rows (rows D-G, and J-M). […] Master plates were sealed and stored at −20 C. until ready for use.
The final dipyridamole/fludrocortisone combination plates were generated by transferring 1 μl from each of the dipyridamole and fludrocortisone master plates to a dilution plate containing 100 μl of media (RPMI; Gibco BRL, #11875-085), 10% Fetal Bovine Serum (Gibco BRL, #25140-097), 2% Penicillin/Streptomycin (Gibco BRL, #15140-122)) using the TomTec Quadra Plus liquid handler. This dilution plate was then mixed and a 10 μl aliquot transferred to the final assay plate, which had been pre-filled with 40 μl/well RPMI media containing the appropriate stimulant to activate TNFα secretion (see below).
The compound dilution matrix was assayed using a TNFα ELISA method. Briefly, a 100 μl suspension of diluted human white blood cells contained within each well of a polystyrene 384-well plate (NalgeNunc) was stimulated to secrete TNFα by treatment with a final concentration of 10 ng/ml phorbol 12-myristate 13-acetate (Sigma) and […] ionomycin (Sigma). Various concentrations of each test compound were added at the time of stimulation. After 16-18 hours of incubation at 37° C. in a humidified incubator, the plate was centrifuged and the supernatant transferred to a white opaque polystyrene 384 well plate (NalgeNunc, Maxisorb) coated with an anti-TNF antibody (PharMingen, #18631D). After a two-hour incubation, the plate was washed (Tecan PowerWasher 384) with phosphate buffered saline (PBS) containing 0.1% Tween 20 (polyoxyethylene sorbitan monolaurate) and incubated for an additional one hour with another anti-TNF antibody that was biotin labeled (PharMingen, 18642D) and horseradish peroxidase (HRP) coupled to strepavidin (PharMingen, #13047E). After the plate was washed with 0.1% Tween 20/PBS, the HRP substrate (which contains luminol, hydrogen peroxide, and an enhancer such as para-iodophenol) was added to each well and light intensity measured using a LJL Analyst luminometer. Control wells contained a final concentration of 1 μg/ml cyclosporin A (Sigma).
A compound matrix of dipyridamole and prednisolone were prepared according to the method of Example 1. The initial stock solution of dipyridamole was 16 mg/ml, and prednisolone was 1.6 mg/ml.
The compound dilution matrix of Example 3, was assayed using the TNFα ELISA method of Example 2.

OCCN(CCO)c1nc(N2CCCCC2)c2nc(N(CCO)CCO)nc(N3CCCCC3)c2n1 [Dipyridamole, 2,6-bis(diethanolamino)-4,8-dipiperidinopyrimido(5,4-d)pyrimidine] was tested, and the “% TNFα suppression from P/I-induced white blood cells” value (primary screen, fludrocortisone 0.000 μM, dipyridamole 0.031 μM) was 3.68%, the “% TNFα suppression from P/I-induced white blood cells” value (primary screen, fludrocortisone 0.000 μM, dipyridamole 0.124 μM) was 9.08% and the “% TNFα suppression from P/I-induced white blood cells” value (primary screen, fludrocortisone 0.000 μM, dipyridamole 0.495 μM) was 13.21%. The “% TNFα suppression from P/I-induced white blood cells” value (primary screen, fludrocortisone 0.000 μM, dipyridamole 1.982 μM) was 35.24%, the “% TNFα suppression from P/I-induced white blood cells” value (primary screen, fludrocortisone 0.000 μM, dipyridamole 7.927 μM) was 66.37% and the “% TNFα suppression from P/I-induced white blood cells” value (primary screen, prednisolone 0.000 μM, dipyridamole 0.031 μM) was 11.24%. The “% TNFα suppression from P/I-induced white blood cells” value (primary screen, prednisolone 0.000 μM, dipyridamole 0.12 μM) was 12.63%, the “% TNFα suppression from P/I-induced white blood cells” value (primary screen, prednisolone 0.000 μM, dipyridamole 0.50 μM) was 18.30% and the “% TNFα suppression from P/I-induced white blood cells” value (primary screen, prednisolone 0.000 μM, dipyridamole 1.98 μM) was 27.21%. The “% TNFα suppression from P/I-induced white blood cells” value (primary screen, prednisolone 0.000 μM, dipyridamole 7.93 μM) was 47.51%, the “% TNFα suppression from P/I-induced white blood cells” value (secondary screen, fludrocortisone 0.000 μM, dipyridamole 0.031 μM) was 10.16% and the “% TNFα suppression from P/I-induced white blood cells” value (secondary screen, fludrocortisone 0.000 μM, dipyridamole 0.062 μM) was 9.43%. The “% TNFα suppression from P/I-induced white blood cells” value (secondary screen, fludrocortisone 0.000 μM, dipyridamole 0.124 μM) was 12.13%, the “% TNFα suppression from P/I-induced white blood cells” value (secondary screen, fludrocortisone 0.000 μM, dipyridamole 0.248 μM) was 23.02% and the “% TNFα suppression from P/I-induced white blood cells” value (secondary screen, fludrocortisone 0.000 μM, dipyridamole 0.495 μM) was 33.73%. The “% TNFα suppression from P/I-induced white blood cells” value (secondary screen, fludrocortisone 0.000 μM, dipyridamole 0.991 μM) was 48.20%, the “% TNFα suppression from P/I-induced white blood cells” value (secondary screen, fludrocortisone 0.000 μM, dipyridamole 1.982 μM) was 62.36% and the “% TNFα suppression from P/I-induced white blood cells” value (secondary screen, fludrocortisone 0.000 μM, dipyridamole 3.964 μM) was 66.54%. The “% TNFα suppression from P/I-induced white blood cells” value (secondary screen, fludrocortisone 0.000 μM, dipyridamole 7.927 μM) was 78.11%.

In the case of C[C@]12C=CC(=O)C=C1CC[C@@H]1[C@@H]2[C@@H](O)C[C@@]2(C)[C@H]1CC[C@]2(O)C(=O)CO [Prednisolone, 11beta,17alpha,21-trihydroxy-1,4-pregnadiene-3,20-dione], the “% TNFα suppression from P/I-induced white blood cells” value (primary screen, prednisolone 0.001 μM, dipyridamole 0.00 μM) was 4.86%, the “% TNFα suppression from P/I-induced white blood cells” value (primary screen, prednisolone 0.004 μM, dipyridamole 0.00 μM) was 19.99% and the “% TNFα suppression from P/I-induced white blood cells” value (primary screen, prednisolone 0.016 μM, dipyridamole 0.00 μM) was 37.84%. For the same molecule, the “% TNFα suppression from P/I-induced white blood cells” value (primary screen, prednisolone 0.063 μM, dipyridamole 0.00 μM) was 33.00% and the “% TNFα suppression from P/I-induced white blood cells” value (primary screen, prednisolone 0.250 μM, dipyridamole 0.00 μM) was 38% and 38.25%.

From patent publication US7253155B2, “Combinations for the treatment of immunoinflammatory disorders” (CombinatoRx, Inc., priority 2001, dated 2007)
